Laboratory results: patent US12673954B2 (BRISTOL-MYERS SQUIBB COMPANY, priority 2021, dated 2026)
Like-named read-outs stand apart in the source and are kept apart here.

How the values were obtained:
[1] = tested on: IRF pathway, THP1-Dual™ cells; assay: STING reporter assay in THP1-Dual cells, IRF pathway (Lucia luciferase, QUANTI-Luc); format: cell-based, human; details: THP1-Dual cells, 10% human plasma, 20 hours, Lucia luciferase, 100% activation = 100 μM cGAMP, read-out: IRF (EC50 μM)
Method in brief: (§1)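 THP-1-derived dual-reporter cells treated with serially diluted compounds (final top concentration 100 μM) for 20 h at 37° C. NF-κB read as SEAP via QUANTI-Blue at OD620; IRF read as Lucia luminescence via QUANTI-Luc after 5 min. 100% activation set by 100 μM cGAMP, baseline by DMSO.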

[2] = tested on: NF-κB pathway, THP1-Dual™ cells; assay: STING reporter assay in THP1-Dual cells, NF-κB pathway (SEAP, QUANTI-Blue); format: cell-based, human; details: THP1-Dual cells, 10% human plasma, 20 hours, SEAP, 100% activation = 100 μM cGAMP, read-out: NFkB (EC50 μM)
Method in brief: as §1

EC50 ([1]; Homo sapiens, THP1-Dual, 20 h) [µM]	EC50 ([2]; Homo sapiens, THP1-Dual, 20 h) [µM]	EC50 [1] [µM]	EC50 [2] [µM]	SMILES
1.4	1.6			COC(=O)c1c(F)c(F)cc2cc(CNC(=O)c3cnn4cccnc34)oc12 [EXAMPLE 126, Methyl 5,6-difluoro-2-((pyrazolo[1,5-a]pyrimidine-3-carboxamido)methyl)benzofuran-7-carboxylate]
0.91	1.2			CONC(=O)c1cc(C)cc2c(Cl)c(CNC(=O)c3cnn4cccnc34)oc12 [EXAMPLE 408, N-((3-chloro-7-(methoxycarbamoyl)-5-methylbenzofuran-2-yl)methyl)pyrazolo[1,5-a]pyrimidine-3-carboxamide]
0.9	1.1			COC(=O)c1c(O)ccc2cc(CNC(=O)c3cnn4cccnc34)oc12 [EXAMPLE 109, Methyl 6-hydroxy-2-((pyrazolo[1,5-a]pyrimidine-3-carboxamido)methyl)benzofuran-7-carboxylate]
1.1	1.1			O=C(OCC(F)(F)F)c1cc(Br)cc2cc(CNC(=O)c3cnn4cccnc34)oc12 [EXAMPLE 269, 2,2,2-Trifluoroethyl 5-bromo-2-((pyrazolo[1,5-a]pyrimidine-3-carboxamido)methyl)benzofuran-7-carboxylate]
0.36	0.36			C[C@@H](OC(=O)c1cc(F)cc2c(Cl)c(CNC(=O)c3cnn4cccnc34)oc12)C(F)(F)F [EXAMPLE 288, (R)-1,1,1-Trifluoropropan-2-yl 3-chloro-5-fluoro-2-((pyrazolo[1,5-a]pyrimidine-3-carboxamido)methyl)benzofuran-7-carboxylate]
48	49			COC(=O)Cc1cccc2cc(CNC(=O)c3cnn4cccnc34)oc12 [EXAMPLE 20, Methyl 2-(2-((pyrazolo[1,5-a]pyrimidine-3-carboxamido)methyl)benzofuran-7-yl)acetate]
		30	> 33	COC(=O)c1cc(Cl)cc2cc(CNC(=O)c3cnn4c(C)ccnc34)oc12 [Example 56, Methyl 5-chloro-2-((7-methylpyrazolo[1,5-a]pyrimidine-3-carboxamido)methyl) benzofuran-7-carboxylate]
0.98	0.99			COC(=O)c1cc(F)cc2cc(C(C)NC(=O)c3cnn4cccnc34)oc12 (centres unmarked) [EXAMPLE 45, Methyl-5-fluoro-2-(1-(pyrazolo[1,5-a]pyrimidine-3-carboxamido)ethyl)benzofuran-7-carboxylate]
0.4	0.28			COC(=O)c1cc(C)cc2c(Br)c(CNC(=O)c3cnn4cccnc34)oc12 [EXAMPLE 121, Methyl 3-bromo-5-methyl-2-((pyrazolo[1,5-a]pyrimidine-3-carboxamido)methyl)benzofuran-7-carboxylate]

Further lines, the compound ahead of its results:

SMILES	EC50 ([1]; Homo sapiens, THP1-Dual, 20 h) [µM]	EC50 ([2]; Homo sapiens, THP1-Dual, 20 h) [µM]	EC50 [1] [µM]	EC50 [2] [µM]
COC(=O)c1cc(Cl)cc2cc(CNC(=O)c3cncc4c3ncn4C)oc12 [Example 69, Methyl 5-chloro-2-((3-methyl-3H-imidazo[4,5-c]pyridine-7-carboxamido)methyl)benzofuran-7-carboxylate]	1.3	2.3		
C[C@H](NC(=O)c1cnn2cccnc12)c1cc2cc(Cl)cc(C(=O)O[C@H](C)C(F)(F)F)c2o1 [EXAMPLE 268, (R)-1,1,1-Trifluoropropan-2-yl 5-chloro-2-((S)-1-(pyrazolo[1,5-a]pyrimidine-3-carboxamido)ethyl)benzofuran-7-carboxylate]	6.1	5.6		
COCCOCCOC(=O)c1cc(Cl)cc2cc(CNC(=O)c3cnn4cccnc34)oc12 [EXAMPLE 258, 2-(2-Methoxyethoxy)ethyl 5-chloro-2-((pyrazolo[1,5-a]pyrimidine-3-carboxamido)methyl)benzofuran-7-carboxylate]	3	3.5		
COC(=O)c1cccc2cc(CNC(=O)c3cncnc3OC)oc12 [EXAMPLE 16, Methyl 2-((4-methoxypyrimidine-5-carboxamido)methyl)benzofuran-7-carboxylate]	6.8	9.3		
COC(=O)c1cc(F)cc2cc(Cn3cnc4ccncc4c3=O)oc12 [EXAMPLE 39, Methyl 5-fluoro-2-((4-oxopyrido[4,3-d]pyrimidin-3(4H)-yl)methyl)benzofuran-7-carboxylate]	4	3.6		
COC(OC(=O)c1cc(Cl)cc2cc(CNC(=O)c3cnn4cccnc34)oc12)C(F)(F)F (single isomer, unassigned) [EXAMPLE 332, 2,2,2-Trifluoro-1-methoxyethyl 5-chloro-2-((pyrazolo[1,5-a]pyrimidine-3-carboxamido)methyl)benzofuran-7-carboxylate]			1.1	1.1
COC(=O)c1cc(Cl)cc2cc(CNC(=O)c3c(N)nn4cccnc34)oc12 [Example 63, Methyl 2-((2-aminopyrazolo[1,5-a]pyrimidine-3-carboxamido)methyl)-5-chlorobenzofuran-7-carboxylate]	10	16		
CSC(=O)c1cc(F)cc2cc(CN3CCc4ccncc4C3=O)oc12 [EXAMPLE 386, S-Methyl 5-fluoro-2-((1-oxo-3,4-dihydro-2,7-naphthyridin-2(1H)-yl)methyl)benzofuran-7-carbothioate]	3.4	3.7		
CC(OC(=O)c1cc(F)cc2cc(Cn3cnc4ccncc4c3=O)oc12)C(F)(F)F (centres unmarked) [EXAMPLE 364, 1,1,1-Trifluoropropan-2-yl 5-fluoro-2-((4-oxopyrido[4,3-d]pyrimidin-3(4H)-yl)methyl)benzofuran-7-carboxylate]			35	21
COC(=O)c1cc(Cl)cc2cc(CNC(=O)c3cnn4cc(Cl)cnc34)oc12 [Example 57, Methyl 5-chloro-2-((6-chloropyrazolo[1,5-a]pyrimidine-3-carboxamido)methyl) benzofuran-7-carboxylate]			9.5	8.1
Cc1ccc(C(=O)OCC(F)(F)F)c2oc(CN3CCc4ccncc4C3=O)cc12 [EXAMPLE 361]	5.5	7.2		
O=C(OCC1CC1)c1cccc2cc(CN3CCc4ccncc4C3=O)oc12 [EXAMPLE 354, Cyclopropylmethyl 2-((1-oxo-3,4-dihydro-2,7-naphthyridin-2(1H)-yl)methyl)benzofuran-7-carboxylate]	46	70		
COC(=O)c1cc(Br)cc2cc(CN3Cc4ccncc4C3=O)oc12 [Example 82, Methyl 5-bromo-2-((3-oxo-1,3-dihydro-2H-pyrrolo[3,4-c]pyridin-2-yl)methyl)benzofuran-7-carboxylate]	27	20		
COC(=O)c1cc(Cl)cc2cc(CNC(=O)c3cncc4[nH]c(C)nc34)oc12 [Example 71, Methyl 5-chloro-2-((2-methyl-3H-imidazo[4,5-c]pyridine-7-carboxamido)methyl)benzofuran-7-carboxylate]	24	33		
COC(=O)c1cc(C)cc2cc(Cn3cnc4ccncc4c3=O)oc12 [Example 86, Methyl 5-methyl-2-((4-oxopyrido[4,3-d]pyrimidin-3(4H)-yl)methyl)benzofuran-7-carboxylate]	1.7	1.8		
CNc1nn2cccnc2c1C(=O)NCc1cc2cc(Cl)cc(C(=O)OC)c2o1 [Example 64, Methyl 5-chloro-2-((2-(methylamino)pyrazolo[1,5-a]pyrimidine-3-carboxamido)methyl)benzofuran-7-carboxylate]	68	> 100		
